From patent US20010032339A1, “Chaperone suppression of ataxin-1 aggregation and altered subcellular proteasome localization imply protein misfolding in SCA1” (priority 1998, published 2001)

What was measured:
Format in all cases: cell-based, human
[1] = tested on: GFP-ataxin-1 [82Q] nuclear aggregates in HeLa cells; test: Effect of proteasome inhibitors on aggregation of GFP-ataxin-1 [82Q] in transfected HeLa cells; conditions: HeLa cells transfected with GFP-ataxin-1 [82Q]
Source text: Full length mutant ataxin-1 [82Q] readily aggregates in subnuclear structures when overexpressed in tissue culture cells and these aggregates alter the staining pattern of the 20S proteasome. […] The effect of proteasome inhibitors on the aggregation of GFP-ataxin-1 [82Q] in transfected HeLa cells was examined. The protease inhibitor clasto-Lactacystin β-lactone specifically prevents protein breakdown by the proteasome, without inhibiting lysosomal degradation. […] In contrast to the 71% of mock treated cells which had nuclear aggregates, 97% of the proteasome inhibitor treated cells were aggregate positive (FIGS. 7A through 7D). […] Therefore, proteasome inhibitor treatment led to an increase in both frequency and size of nuclear aggregates. This enhancement is most likely due to the increased nuclear concentration of misfolded proteins which are not being properly degraded.

[2] = tested on: ataxin-1 [92Q] in HeLa cells; test: Immunoblot of steady-state levels of ataxin-1 in detergent soluble and insoluble fractions; conditions: HeLa cells expressing ataxin-1 [92Q], versus DMSO control
Experimental: The effect of β-lactone on the steady-state levels of ataxin-1 was assessed by immunoblot analysis (FIGS. 8A through 8D). HeLa cells expressing mutant ataxin-1 [92Q] were treated with either different concentrations of β-lactone or DMSO (dimethyl sulfoxide) control. Cells lysates were separated into detergent soluble and insoluble fractions and then immunoblotted with ataxin-1 antibody. […] Increasing the protein concentration per lane and extending the exposure time, a high molecular weight smear punctated by discrete bands is evident. […] Additionally, the higher molecular weight smear was never seen in the detergent soluble fraction.

[3] = tested on: ataxin-1 [92Q] nuclear aggregates in HeLa cells; test: Ataxin-1 aggregate formation in HeLa cells cotransfected with ataxin-1 [92Q] and HDJ-2/HSDJ constructs
Source text: Full-length human HDJ-2/HSDJ and HDJ-2/HSDJ mutants Δ250 (deletion of aa 9-46) and Δ450 (deletion of aa9-107)^32 were subcloned in frame into the pFLAG-CMV-2vector (Kodak). The primers HDJ2-FOR (5′-[…]-3′) and HDJ2-REV (5′-[…]-3′) were used to PCR amplify the 5′ end of HDJ-2/HSDJ containing an inframe Not I site. The PCR product was cut with Notl and EcoRl and subcloned into pFLAG-CMV-2. This construct was digested with EcoRl and Xbal to insert the 3′ HDJ-2/HSDJ EcoRl/Xbal sequence. The constructs were confirmed by DNA sequence analysis.
Transient expression of ataxin-1 and HDJ-2/HSDJ in COS7 and HeLa cells was accomplished by transfection with Lipofectamine™ Reagent (Life technologies, Inc.) in 35 mm tissue culture plates containing sterile coverslips. Forty-eight hours after transfection, cells were fixed at 4° C. for 30 min in 4% formaldehyde in PEM (80 mM K-PIPES, pH 6.8, 5 mM EGTA pH 7.0, 2 mM MgCl2), quenched in 1 mg/ml NaBH4 in PEM, and permeabilized for 30 min in 0.5% Triton X-100 in PEM. The coverslips were blocked for 1 hour at room temperature (RT) in 5% non-fat dry milk (Bio-Rad) in 50 mM Tris-HCl pH 7.5, 150 mM NaCl, 0.05% Tween20 (TBS-T), then incubated for 60 min at RT with rabbit polyclonal antibodies (1:1000) recognizing ataxin-1 (11750VII)^44. […] Hsp70 was detected with mouse monoclonal anti-Hsp70 (1:500) (StressGen). Endogenous HDJ-2/HSDJ was detected with mouse monoclonal anti-HDJ-2/DNAJ (1:200) (Neomarkers). The 20S proteasome was visualized with rabbit polyclonal anti-20S proteasome^43 (1:500) and ataxin-1 colocalization was detected using mouse monoclonal anti-Xpress (1:1000) recognizing the Xpress epitope in pcDNA 3.1 (Invitrogen). […]
Duplicate slides were graded blindly in two independent trials. […] Frequency of aggregate formation was computed for two independent experiments and expressed as the mean±s.e.m. […]
The ability of HDJ-2/HSDJ to function as a molecular chaperone and moderate ataxin-1 aggregation in HeLa cells was tested. […] HDJ-2/HSDJ was overexpressed by transfection in HeLa cells and the cells analyzed for the staining pattern of ataxin-1. […]

| Compound | distribution of cells containing large aggregates compared to controls [1] | percentage of cells aggregate positive ([1]; mock treated 71%) [%] | steady-state level of detergent soluble form of ataxin-1 [2] | steady-state level of detergent-insoluble form of ataxin-1 [2] | change in frequency of ataxin-1 aggregation versus vector control ([3]; HeLa cells cotransfected with ataxin-1, ANOVA F=24.5, p=0.0002) | distribution of ataxin-1 staining pattern (diffuse/micropunctate versus large aggregates) ([3]; HeLa cells cotransfected with ataxin-1, ANOVA F=36.4, p<0.001) | percentage of cells with nuclear aggregates (aggregate-positive) ([3]; HeLa cells cotransfected with ataxin-1 [92Q], vector control approximately 70%) |
| --- | --- | --- | --- | --- | --- | --- | --- |
| CC(C)[C@H](O)[C@@]12NC(=O)[C@H](C)[C@@H]1OC2=O [β-lactone, clasto-Lactacystin β-lactone] | dramatically increased | 97 | unchanged | marked accumulation |  |  |  |
| HDJ-2/HSDJ: full-length human DnaJ (Hsp40) homolog molecular chaperone, overexpressed by transfection (pFLAG-CMV-2) |  |  |  |  | significant decrease | more cells have diffuse/micropunctate nuclear staining pattern, than large nuclear aggregates | less than 40% |
